Data set [1] concerns CYP2C9. The note with it: for % inhibition of CYP2C9 activity: tolbutamide 1 mM, rat liver microsomes; for 4′-hydroxytolbutamide: Sprague-Dawley, rat, 7.5 min, pH 7.4. Background: Liver microsomes are vesicles of endoplasmic reticulum, rich in cytochrome P450 enzymes.
The test system of data set [2] is CYP2C9. The data set can be described thus: in vitro. The note with it: Sprague-Dawley, rat, microsomes.
Data set [3] can be described thus: In vivo study in rodents: fluvastatin pharmacokinetics with or without tamarixetin. The note with it: tamarixetin pretreatment versus control, rats.
Experimental: The test system used is the Sprague-Dawley rat.
After overnight fast, rats are anesthetized and prepared with a jugular catheter. […] Twelve blood samples (including pre dose blank) are collected over 24 hours—0, 10, 20, 40, 60, 120, 240, 360, 480, 720, 1080 and 1440 minutes. Each sample (0.5 to 0.6 mL blood) is collected into microfuge tubes containing 20 uL of 10 IU heparin (anti-coagulant). After separation, plasma samples are protected from light and stored at −80° C. freezer.
A further data set in a line: in vivo. The conditions noted are these: Sprague-Dawley, rat, po, 1.5 mg/kg; for Cmax: Cmax of fluvastatin.
Data set [4] has as its target CYP2C9 (Homo sapiens, UniProt P11712). The conditions noted are these: cited from earlier work.
For data set [5] the following is noted: rats; cited from earlier work.
Where [6] appears, read: pH 7.4, % inhibition of CYP2C9 activity.
Where [7] appears, read: pH 7.4, % inhibition of tolbutamide metabolism in microsomes.

Like-named read-outs stand apart in the source and are kept apart here.

Broadly, the inhibition is the share of the control response that was lost under treatment. The low end stands for little suppression, the high end for strong suppression. The term AUC(0-inf) denotes total exposure, with the tail of the curve extrapolated. Broadly, the AUC(0-t) is exposure summed from dosing to a finite time, without extrapolation to infinity. A higher AUC(0-t) goes with more exposure. One may read the MRT inf as a mean duration of stay, worked out from the concentration-time curve. The Tmax is the time at which the peak concentration occurs. Broadly, the Cmax is the highest concentration seen after dosing.

CYP2C9 (Homo sapiens, UniProt P11712), sequence (P11712 whole entry): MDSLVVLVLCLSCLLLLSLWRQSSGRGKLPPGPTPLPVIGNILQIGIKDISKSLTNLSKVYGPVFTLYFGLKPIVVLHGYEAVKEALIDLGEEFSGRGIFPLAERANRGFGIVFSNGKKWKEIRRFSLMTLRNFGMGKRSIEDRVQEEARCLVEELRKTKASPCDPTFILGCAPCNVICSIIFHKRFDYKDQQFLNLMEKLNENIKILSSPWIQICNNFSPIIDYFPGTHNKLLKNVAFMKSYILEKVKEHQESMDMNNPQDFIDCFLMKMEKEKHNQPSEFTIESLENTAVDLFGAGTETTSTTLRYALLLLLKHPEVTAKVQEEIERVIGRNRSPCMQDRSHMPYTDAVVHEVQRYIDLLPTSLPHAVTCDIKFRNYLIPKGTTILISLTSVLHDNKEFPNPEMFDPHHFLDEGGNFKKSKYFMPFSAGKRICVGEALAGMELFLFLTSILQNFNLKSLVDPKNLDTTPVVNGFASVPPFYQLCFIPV

Regarding `C=C(C)C1CC=C(C)CC1` (single isomer, unassigned; (+)) [(+)-Limonene], the figures for the “% inhibition of CYP2C9 activity” value in the data set with CYP2C9 [1] (test article 1 μM), in the data set with CYP2C9 [1] (test article 10 μM) and in the data set with CYP2C9 [1] (test article 100 μM) were 14.12%, 10.55% and 22.29%, respectively.
In the case of `O=c1cc(-c2ccccc2)oc2ccc3ccccc3c12` [β-Naphthoflavone], the “% inhibition of CYP2C9 activity” value with CYP2C9 [1] (test article 1 μM) amounted to 2.35%; in the data set with CYP2C9 [1] (test article 10 μM), 4.64%.
Take `O=c1cc(-c2ccc(O)c(O)c2)oc2cc(O)c([C@@H]3O[C@H](CO)[C@@H](O)[C@H](O)[C@H]3O)c(O)c12` [Homoorientin]: the “% inhibition of CYP2C9 activity” value with CYP2C9 [1] (test article 1 μM) is reported as 3.37%; with CYP2C9 [1] (test article 10 μM), 2.45%; in the data set with CYP2C9 [1] (test article 100 μM), 20.19%.
As to `COc1ccc(-c2oc3cc(O)cc(O)c3c(=O)c2O)cc1O` [Tamarixetin], the “4′-hydroxytolbutamide” value in the data set on CYP2C9 [1] (1 μM) turned out to be 213.5696 ± 24.4309 ng; in the data set on CYP2C9 [1] (10 μM) it was 43.1 ± 2.5372 ng; with CYP2C9 [1] (100 μM) it was 35.49 ± 1.5825 ng. In addition, the inhibition at 7.5 min, 1 μM in the data set with CYP2C9 [2] (pH 7.4, % inhibition) was 42%; in the data set on CYP2C9 [2] (setting [6]), 42%; in the data set with CYP2C9 [2] (setting [7]) it was 42%. The inhibition at 7.5 min, 10 μM in the data set on CYP2C9 [2] (pH 7.4, % inhibition) stood at 88.2%; in the data set on CYP2C9 [2] (setting [6]), 88.1%; with CYP2C9 [2] (setting [7]), 88.1%. Further, the inhibition at 7.5 min, 100 μM with CYP2C9 [2] (pH 7.4, % inhibition) was determined as 90.2%; in the data set on CYP2C9 [2] (setting [6]), 90.2%; with CYP2C9 [2] (setting [7]), 90.2%. For the same molecule, the “change of terminal elimination rate constant (k) of fluvastatin” value in data set [3] is on record as “no apparent changes”.
Consider `CC(C)n1c(/C=C/C(O)CC(O)CC(=O)O)c(-c2ccc(F)cc2)c2ccccc21` (stereo not drawn) [fluvastatin], for which, in “in vivo”, the AUC(0-inf) is 950 ± 133 ng·h/mL, the AUC(0-t) turned out to be 711 ± 81.5 ng·h/mL, the MRT inf is 15.8 ± 1.56 h and the Tmax is 4.7 ± 1.7 h. Further, in “in vivo”, the Cmax came to 63.1 ± 10.4 ng/mL. In the data set “in vivo” (control group), this molecule registered a Cmax of 63.1 ± 10.4 ng/mL. Further, the “share of metabolism for which liver CYP2C9 is responsible” value on CYP2C9 [4] is listed as “approximately 80%”.
In the case of `O=C1C[C@@H](c2ccc(O)cc2)Oc2cc(O)cc(O)c21` [Narigenin], the “% inhibition of CYP2C9 activity” value with CYP2C9 [1] (test article 1 μM) is recorded as 5.20%; in the data set on CYP2C9 [1] (test article 10 μM) it was 49.98%; in the data set on CYP2C9 [1] (test article 100 μM), 79.70%.
`COc1ccc([C@@H]2CC(=O)c3c(O)cc(O[C@@H]4O[C@H](CO[C@@H]5O[C@@H](C)[C@H](O)[C@@H](O)[C@H]5O)[C@@H](O)[C@H](O)[C@H]4O)cc3O2)cc1O` [Hesperidin]: the “% inhibition of CYP2C9 activity” value in the data set with CYP2C9 [1] (test article 1 μM) was 2.57%; in the data set on CYP2C9 [1] (test article 10 μM), 6.68%.
`CCCCNC(=O)NS(=O)(=O)c1ccc(C)cc1` [tolbutamide]: the oral bioavailability in data set [5] is given as 90%.
`O=C1C[C@@H](c2ccc(O)c(O)c2)Oc2cc(O)cc(O)c21` [eriodictyol]: in the data set on CYP2C9 [2] (setting [6]), the inhibition at 7.5 min, 1 μM worked out at 32.8%; the inhibition at 7.5 min, 10 μM stood at 28.6%; the inhibition at 7.5 min, 100 μM stood at 69.6%.
In the data set on CYP2C9 [2] (pH 7.4), `O=c1c(O)c(-c2ccc(O)c(O)c2)oc2cc(O)cc(O)c12` [quercetin] returned an inhibition at 7.5 min, 1 μM of 15.1%; an inhibition at 7.5 min, 10 μM of 44.8%; an inhibition at 7.5 min, 100 μM of 91.9%.
In the data set with CYP2C9 [2] (setting [6]), `O=C(O)c1ccc(O)c(O)c1` [protocatechuic acid] returned an inhibition at 7.5 min, 1 μM of 20.3% and an inhibition at 7.5 min, 10 μM of 16.2%.

Values taken from patent US20130184227A1, “Cytochrome P450 2C9 Inhibitors” (priority 2004, published 2013).
